Where a SMILES comes first, the peptide text is derived from it. The star is where a group is joined. Cbz = O=C(OCc1ccccc1)*
Tests used:
KLK2 [1] = experiment: Human KLK2 ELISA, tissue culture supernatant; type: cell-based; details: in vitro, RCC cell lines
[2] = test system: AR+ RCC cell lines (786-0R, UMRC2, Caki2); experiment: Crystal violet cell viability assay, AR+ RCC cell lines; type: cell-based, human
Method: (§1) AR expression was also assessed in other RCC cell lines (FIG. 1E).

KLK2 [3] = experiment: Human KLK2 ELISA, serum of 786-0 tumor bearing mice; type: in vivo; details: 786-0 model, end-point
CDK1 = experiment: Western blot for CDK1 in RP-R-02LM tumors treated in vivo; details: RP-R-02LM intrinsically sunitinib-resistant tumors
Text: Cells were maintained and cultured in the appropriate media, supplemented with 10% FBS and 1% penicillin and streptomycin. All cells are routinely tested and checked for the absence of mycoplasma. […] Crystal violet assay (Sigma) was used to evaluate cells growth after different time point-treatment, and absorbance was read using a spectrometer (xMarks Spectrometer, Bio-Rad). […] Six-week-old homozygous ICR, Severe Combined Immune-deficient (SCID) female mice were housed in a sterile, pathogen-free facility and maintained in a temperature controlled room, under a 12-hour light/dark schedule with water and food ad libitum. […] All mice were operated under sedation with oxygen, isoflurane and buprenorphine. When tumors were established, and reached 50 mm^2, mice were randomly grouped and placed in either control group or treatment groups (n=5-10). […] Tumor burden was assessed once a week by caliper measurement of two diameters of the tumor (L×W=mm^2) and reported as tumor volume ((L×W2)/2=mm^3). Body weights were assessed using a weighing scale and recorded in grams. Endpoint tumor weights were assessed using a weigh scale and recorded in grams. […]
Whole cell protein extracts from tissue and cell were denatured, separated on SDS-PAGE gels and transferred to nitrocellulose membranes. […] Quantitative measurements of Western blot analysis were performed using ImageJ and Graph-Pad software (Prism 7).

LNCaP cells = experiment: LNCaP cell phenotype and drug activity; type: cell-based; details: sunitinib-exposed LNCaP cells
786-OAR cells = experiment: Sunitinib dose-response proliferation assay, AR-overexpressing cells; type: cell-based; details: Homo sapiens; 786-OAR (786-0 overexpressing ARwt)
Method: as §1

androgen receptor [4] = biological target: T1, androgen receptor (Homo sapiens, UniProt P10275); experiment: AR expression by immunofluorescence in UMRC2siSPOP cells; type: cell-based; details: UMRC2siSPOP compared to UMRC2, in the presence of sunitinib
T1 construct: Baseline AR expression was high in 786-0R and UMRC2 cells; host or cells: 786-0, 786-0R, UMRC2
T1 sequence (P10275 1-920): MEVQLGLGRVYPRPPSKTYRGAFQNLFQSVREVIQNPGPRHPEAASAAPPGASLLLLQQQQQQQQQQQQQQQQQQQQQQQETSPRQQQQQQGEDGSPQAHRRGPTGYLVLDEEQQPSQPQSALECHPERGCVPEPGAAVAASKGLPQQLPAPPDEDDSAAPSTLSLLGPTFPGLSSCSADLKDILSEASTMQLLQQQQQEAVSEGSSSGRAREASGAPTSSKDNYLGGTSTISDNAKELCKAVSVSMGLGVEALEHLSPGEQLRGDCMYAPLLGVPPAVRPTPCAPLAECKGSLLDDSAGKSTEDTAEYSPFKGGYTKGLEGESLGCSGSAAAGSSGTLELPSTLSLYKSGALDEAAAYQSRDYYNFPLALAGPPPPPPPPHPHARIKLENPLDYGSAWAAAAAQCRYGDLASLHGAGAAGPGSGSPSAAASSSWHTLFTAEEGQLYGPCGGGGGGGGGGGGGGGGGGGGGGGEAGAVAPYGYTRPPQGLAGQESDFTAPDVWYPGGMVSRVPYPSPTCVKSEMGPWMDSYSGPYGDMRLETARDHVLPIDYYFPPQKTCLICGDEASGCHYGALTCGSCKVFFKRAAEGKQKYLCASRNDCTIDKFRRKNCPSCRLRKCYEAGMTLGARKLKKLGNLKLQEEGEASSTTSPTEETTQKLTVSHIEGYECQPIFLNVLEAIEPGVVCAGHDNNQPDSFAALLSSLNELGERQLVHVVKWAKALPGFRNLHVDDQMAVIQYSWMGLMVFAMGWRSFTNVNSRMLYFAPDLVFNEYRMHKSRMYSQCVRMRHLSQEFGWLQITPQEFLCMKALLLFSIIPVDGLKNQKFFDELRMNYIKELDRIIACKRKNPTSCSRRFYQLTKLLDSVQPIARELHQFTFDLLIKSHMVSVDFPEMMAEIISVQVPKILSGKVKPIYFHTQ

KLK2 [5] = experiment: KLK2 ELISA in plasma of kidney cancer patients; type: in vivo, human; details: kidney cancer patients treated with sunitinib
KLK2 [6] = experiment: KLK2 serum level in RCC PDX models RP-R-02 and RP-R-02LM; type: in vivo, human; details: sunitinib acquired (RP-R-02) and intrinsic (RP-R-02LM) resistance models
786-0 cells = experiment: Sunitinib dose-response proliferation assay; type: cell-based; details: Homo sapiens
Method: as §1

androgen receptor [7] = biological target: T1, androgen receptor; experiment: AR expression by immunofluorescence in RCC cells (sunitinib, enzalutamide, combination, ±MG132); type: cell-based; details: 786-0R and UMRC2 cells
786-0 tumors = experiment: 786-0 RCC tumor model in mice; type: in vivo
[8] = test system: AR targeted genes (KLK2, KLK4, ZBTB16, MYC); experiment: q-PCR of AR targeted genes after sunitinib; type: cell-based, human; details: 786-0R and UMRC2 cells, sunitinib treatment
Method: RNA was extracted in accordance with manufacturer's protocol (miRNeasy; Qiagen), and RNA sequencing was performed as previously described (25). In brief, RNA illumine sequencing reads were de-multiplex, aligned against human genome (hg19), and results aligned to BAM formatted sequence alignment map via cufflinks program. Differential expressed transcripts were identified between 786-0 and 786-0R samples, and ranked based on the square root of the sum of squares for the log 2 fold change. For qRT-PCR analysis, gene expression assessment on AR target genes was performed using the Prime PCR array (Bio-Rad) according to manufacturer's protocol. AR primer used is forward primer; 5-[…]-3 (SEQ ID NO:1) and reverse primer; 5-[…]-3 (SEQ ID NO:2). In brief, the denaturation step was carried out at 95° C. for 10 seconds; the annealing step was carried out at 58° C. for 30 seconds, and extension step at 72° C. for 1 minute using the applied Biosystems 7900HT fast real-time PCR system (Applied Biosystems). Sequence Detection Systems Software v2.3 was used to identify cycle threshold (Ct) values and generate gene expression curves. All data were normalized to either GAPDH expression.
Gene expression of AR targeted genes was then examined in the presence or absence of sunitinib treatment.

786-0R cells = experiment: Ki67 immunofluorescence staining; type: cell-based, human; details: in the presence of sunitinib and enzalutamide
Method: as §1

Row | SMILES | KLK2 in tissue culture supernatant (KLK2 [1]) | cell viability, single agent ([2]; AR+ 786-0R cells) | circulating KLK2 levels (KLK2 [3]) | CDK1 protein expression (CDK1) | activity of enzalutamide (LNCaP cells) | IC50 (786-OAR cells) | AR expression (androgen receptor [4]) | KLK2 in plasma (KLK2 [5]) | KLK2 in serum (KLK2 [6]) | IC50 (786-0 cells) | IC50 for sunitinib by AR status ([2]; AR+ lines (786-0R, UMRC2, Caki2) compared to AR- lines (786-0, ACHN)) | AR expression (androgen receptor [7]) | angiogenesis (CD31 staining) (786-0 tumors; 786-0 tumors) | proliferation in vivo (Ki67 staining) (786-0 tumors; 786-0 tumors) | time when tumors became resistant to sunitinib (≥50% increase volume from nadir) (786-0 tumors; second experiment, sunitinib 40 mg/kg) | increased gene expression of KLK2, KLK4, ZBTB16 and MYC [8] | cell proliferation (Ki67 staining) (786-0R cells)
1 | CNC(=O)c1ccc(N2C(=S)N(c3ccc(C#N)c(C(F)(F)F)c3)C(=O)C2(C)C)cc1F [enzalutamide, 4-(3-(4-cyano-3-(trifluoromethyl)phenyl)-5,5-dimethyl-4-oxo-2-thioxoimidazolidin-1-yl)-2-fluoro-N-methylbenzamide] | modulated | did not have a significant effect | decreased | – | – | – | – | – | – | – | – | – | – | – | – | – | –
2 | CCN(CC)CCNC(=O)c1c(C)[nH]c(/C=C2\C(=O)Nc3ccc(F)cc32)c1C [sunitinib, N-(2-Diethylaminoethyl)-5-[(Z)-(5-fluoro-2-oxo-1H-indol-3-ylidene)methyl]-2,4-dimethyl-1H-pyrrole-3-carboxamide] | increased KLK2 | – | – | increased CDK1 protein expression | increased the activity of enzalutamide | 12.3 µM | significant increased AR expression | increase of KLK2 | increased | 5.2 µM | higher IC50 | increased | inhibition of angiogenesis | continued to proliferate | 45 days | 2-100 fold | –
3 | CC(C)C[C@@H](C=O)NC(=O)[C@H](CC(C)C)NC(=O)[C@H](CC(C)C)NC(=O)OCc1ccccc1 [MG132] (Cbz-Leu-Leu-Leu-aldehyde) | – | – | – | – | – | – | – | – | – | – | – | – | – | – | – | – | restoration of cell proliferation
